The text below walks through data of PubChem BioAssay (NCI).

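These data come from cells grown in 96-well plates and exposed to compound for 48 hours at five concentrations. Definition used: TGI = concentration required for complete inhibition of growth.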

Test systems include 786-0 renal; A498 renal; A549 NSCLC; COLO 205 colon; EKVX NSCLC; HCT-116 colon; IGROV1 ovarian; MDA-MB-231 breast; MDA-MB-435; NCI-H460 lung; NCI/ADR-RES ovarian; OVCAR-4 ovarian; RPMI-8226 leukemia; SF-268 CNS; SF-295 CNS; SK-MEL-2 melanoma; SK-OV-3 ovarian; SN12C renal; TK-10 renal; UO-31 renal.
Holding throughout (experiment): growth of human tumour cells (NCI), 48 h

Turning to `N[C@@H](Cc1ccccc1)C(=O)N1CCC[C@@H]1P(=O)(Oc1ccccc1)Oc1ccccc1`, the TGI in the assay on 786-0 renal, with A498 renal, in the assay on A549 NSCLC, in the assay on COLO 205 colon, in the assay with EKVX NSCLC and in the assay on HCT-116 colon was > 100 µM in each case. Besides, the TGI in the assay with IGROV1 ovarian, in the assay with MDA-MB-231 breast, in the assay with MDA-MB-435, in the assay on NCI-H460 lung, in the assay with NCI/ADR-RES ovarian and in the assay with OVCAR-4 ovarian was > 100 µM in each case. In addition, the TGI with RPMI-8226 leukemia, with SF-268 CNS, in the assay on SF-295 CNS, in the assay on SK-MEL-2 melanoma, with SK-OV-3 ovarian and in the assay on SN12C renal was > 100 µM each time. The TGI in the assay with TK-10 renal and with UO-31 renal was > 100 µM each time.
As to `CCOC(=O)c1cccc(N=Nc2nc[nH]c2/C=C/C(=O)OC)c1`, the TGI is > 100 µM in the assay on 786-0 renal; 66.8 µM with A498 renal; > 100 µM in the assay with A549 NSCLC; > 100 µM in the assay on COLO 205 colon; > 100 µM in the assay with EKVX NSCLC; > 100 µM in the assay with HCT-116 colon. For the same compound, the TGI in the assay with IGROV1 ovarian was > 100 µM; in the assay on MDA-MB-231 breast it was > 100 µM; with MDA-MB-435, > 100 µM; with NCI-H460 lung, 53 µM; with NCI/ADR-RES ovarian it was > 100 µM; with OVCAR-4 ovarian, > 100 µM. For the same compound, the TGI is > 100 µM in the assay with RPMI-8226 leukemia; > 100 µM with SF-268 CNS; > 100 µM in the assay on SF-295 CNS; 63.5 µM in the assay on SK-MEL-2 melanoma; > 100 µM in the assay on SK-OV-3 ovarian; 68.1 µM with SN12C renal. Besides, the TGI in the assay with TK-10 renal and in the assay on UO-31 renal was > 100 µM each time.
`CC1=CCC([C@@](C)(O)CCCC(C)(C)N=C=S)CC1` (stereo not given in full): the TGI is 31.6 µM with 786-0 renal; 28.7 µM in the assay on A498 renal; 34.2 µM in the assay on A549 NSCLC; 30.2 µM with COLO 205 colon; 32.5 µM with EKVX NSCLC; 26.6 µM in the assay on HCT-116 colon. For the same compound, the TGI in the assay on IGROV1 ovarian came out at 40.3 µM; with MDA-MB-231 breast, 36.7 µM; with MDA-MB-435, 31 µM; with NCI-H460 lung, 33 µM; in the assay with NCI/ADR-RES ovarian, 38.9 µM; in the assay on OVCAR-4 ovarian it was 30.9 µM. The TGI in the assay on RPMI-8226 leukemia was 67.3 µM; with SF-268 CNS, 31.6 µM; in the assay on SF-295 CNS it was 36.3 µM; in the assay with SK-MEL-2 melanoma, 33.3 µM; in the assay on SK-OV-3 ovarian, 32.9 µM; in the assay on SN12C renal, 35.6 µM. The results for the TGI with TK-10 renal and in the assay on UO-31 renal were 37.8 µM and 26.7 µM, respectively.
As for `O=[N+]([O-])C(=C(Nc1cccc2cccnc12)Nc1cccc2cccnc12)C(Cl)=C(Cl)Cl`, the TGI in the assay with 786-0 renal, in the assay on A498 renal, with A549 NSCLC, in the assay on COLO 205 colon, in the assay with EKVX NSCLC and in the assay on HCT-116 colon was > 100 µM in each case. Besides, the TGI with IGROV1 ovarian was > 100 µM; with MDA-MB-231 breast, 29.6 µM; with MDA-MB-435, > 100 µM; in the assay with NCI-H460 lung, > 100 µM; in the assay on NCI/ADR-RES ovarian it was > 94 µM; in the assay with OVCAR-4 ovarian, > 96.1 µM. In addition, the TGI in the assay with RPMI-8226 leukemia was > 100 µM; in the assay on SF-268 CNS, > 100 µM; in the assay on SF-295 CNS it was > 100 µM; with SK-MEL-2 melanoma, > 54 µM; in the assay with SK-OV-3 ovarian, > 100 µM; in the assay with SN12C renal, > 95.7 µM. For the same compound, the TGI with TK-10 renal and in the assay with UO-31 renal was > 100 µM each time.
Take `O=S(=O)(O)C(CO)c1ccccc1` (stereo not given) (tested in a mixture with another compound): the TGI with 786-0 renal, in the assay on A498 renal, in the assay on A549 NSCLC, in the assay on COLO 205 colon, in the assay with EKVX NSCLC and in the assay with HCT-116 colon was > 100 µM each time. The TGI in the assay on IGROV1 ovarian, in the assay on MDA-MB-231 breast, in the assay on MDA-MB-435, with NCI-H460 lung, with NCI/ADR-RES ovarian and in the assay on OVCAR-4 ovarian was > 100 µM each time. Moreover, the TGI in the assay on RPMI-8226 leukemia, in the assay on SF-268 CNS, with SF-295 CNS, with SK-MEL-2 melanoma, with SK-OV-3 ovarian and with SN12C renal was > 100 µM each time. Also, the TGI in the assay with TK-10 renal and with UO-31 renal was > 100 µM each time.
For `N#CC(C#N)=C1SC(=Nc2ccccc2)C(=Nc2ccccc2)N1c1ccccc1`, the TGI is 60.8 µM in the assay with 786-0 renal; > 92.2 µM in the assay with A498 renal; > 100 µM with A549 NSCLC; 30.2 µM in the assay on COLO 205 colon; > 100 µM in the assay with EKVX NSCLC; 32.7 µM in the assay with HCT-116 colon. Further, the TGI in the assay on IGROV1 ovarian was 28.9 µM; in the assay with MDA-MB-231 breast it was 26.6 µM; in the assay on MDA-MB-435, 35.1 µM; with NCI-H460 lung, > 31.6 µM; in the assay on NCI/ADR-RES ovarian, 97.1 µM; in the assay with OVCAR-4 ovarian, 34.8 µM. Also, the TGI in the assay with RPMI-8226 leukemia was > 55.3 µM; with SF-268 CNS it was > 66.7 µM; in the assay on SF-295 CNS, > 76.6 µM; with SK-MEL-2 melanoma, 44.3 µM; in the assay with SK-OV-3 ovarian, > 100 µM; in the assay on SN12C renal, 77.2 µM. Further, the TGI is > 100 µM with TK-10 renal and 25.3 µM in the assay with UO-31 renal.
In the case of `C=C1C(=O)CC2C1CC(=O)/C(C)=C/CCC(C)(O)C2O` (stereo not given), the TGI came to 7.91 µM in the assay with 786-0 renal; 48.4 µM in the assay on A498 renal; 46.5 µM with A549 NSCLC; 7.49 µM in the assay with COLO 205 colon; 34.3 µM in the assay with EKVX NSCLC; 6.92 µM in the assay with HCT-116 colon. The TGI is 20.4 µM in the assay on IGROV1 ovarian; 25.2 µM in the assay on MDA-MB-231 breast; 20.4 µM with MDA-MB-435; 45.5 µM in the assay on NCI-H460 lung; 28.3 µM in the assay on NCI/ADR-RES ovarian; 29.1 µM with OVCAR-4 ovarian. Also, the TGI is > 37.9 µM in the assay on RPMI-8226 leukemia; 35.6 µM in the assay with SF-268 CNS; 47.8 µM with SF-295 CNS; 22.9 µM with SK-MEL-2 melanoma; 49.8 µM with SK-OV-3 ovarian; 5.32 µM with SN12C renal. Moreover, the TGI was 8.51 µM with TK-10 renal and 17.3 µM with UO-31 renal.
